The values that follow are results of earlier work, collected in patent EP1147779A1, “A method for rendering ursodeoxycholic acid in soluble form pharmaceutical compositions” (BIOPROGRESS S.p.A., priority 2000, dated 2001).

For data set [1] the following is noted: ursodeoxycholic acid as such; background statement.

As for β-cyclodextrin, the toxicity entry (general statement, allowed by FAO/WHO as food additive) is “no toxicity”. For the same compound, for the setting “oral administration to humans”, the “passage of the intestinal mucosa / presence in plasma and urine” value was “does not overcome the barrier of the intestinal mucosa and is not found either in plasma or in urine”.
Regarding `C[C@H](CCC(=O)O)[C@H]1CC[C@H]2[C@@H]3[C@@H](O)C[C@@H]4C[C@H](O)CC[C@]4(C)[C@H]3CC[C@]12C` [Ursodeoxycholic acid], the solubility result in data set [1] is listed as “practically insoluble”.
